According to PubChem BioAssay (NCI):
Values joined by “and” are separate entries in the source; they are usually repeats but may differ in a detail not shown here. Identical values can stand only once.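 Grown in 96-well plates, cells were treated for 48 hours with each compound at five concentrations. Insufficient inhibition: endpoint recorded as highest concentration tested. The concentration for 50% growth inhibition is given as GI50. Definition used: TGI = concentration required for complete inhibition of growth.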

Legend:
Assay in all cases: growth of human tumour cells (NCI), 48 h
[1] = test system: 786-0 renal
[2] = test system: HL-60(TB) leukemia
[3] = test system: TK-10 renal
[4] = test system: NCI-H23 lung
[5] = test system: HT29 colon
[6] = test system: OVCAR-5 ovarian
[7] = test system: LOX IMVI melanoma
[8] = test system: A549 NSCLC
[9] = test system: OVCAR-3 ovarian
[10] = test system: MALME-3M melanoma

Row | SMILES | GI50 [1] [µM] | TGI [1] [µM] | GI50 [2] [µM] | TGI [2] [µM] | GI50 [3] | TGI [3] | GI50 [4] [µM] | TGI [4] [µM] | GI50 [5] [µM] | TGI [5] [µM] | GI50 [6] [µM] | TGI [6] | GI50 [7] [µM] | TGI [7] [µM] | GI50 [8] [µM] | TGI [8] | GI50 [9] [µM] | TGI [9] | GI50 [10] [µM] | TGI [10]
1 | COc1ccc(Cl)cc1Nc1nc(C(F)(F)F)ccc1C(=O)N/N=C/c1cc(OC)c(OC)c(OC)c1 | 1.78 | 3.68 | 2.21 | 5.77 | 1.76 µM | 7.28 µM | 5.35 | 40.6 | 3.73 | 13.2 | 5.59 | 24.4 µM | 1.25 | 3.28 | 2.64 | 6.64 µM | 0.449 | > 100 µM | 1.07 | 4.05 µM
2 | COc1ccc(CN2c3ccccc3CCc3ccccc32)cc1F | 0.572 | > 100 |  |  | 0.611 µM | > 100 µM | 0.672 | > 100 | 0.32 | 1.9 | 1.9 | > 100 µM | 0.725 | > 100 | 0.732 | > 100 µM | 0.285 | 0.785 µM |  | 
3 | Cc1cc(=O)oc2cc(O)c(CN(C)CC(=O)O)cc12 |  | > 100 |  | > 100 |  | > 100 µM |  | > 100 |  | > 100 |  | > 100 µM |  | > 100 |  | > 100 µM |  |  |  | > 100 µM
4 | S=c1nc(-c2cccnc2)[nH][nH]1 |  | > 100 |  | > 100 |  | > 100 µM |  | > 100 |  | > 100 |  | > 100 µM |  | > 100 |  | > 100 µM |  |  |  | > 100 µM
5 | CC(=O)O[C@@H]1C2C(=O)OC(=O)C2C2CCC[C@]23O[C@H]13 (stereo not given in full) |  | > 100 |  | > 100 |  | > 100 µM |  |  |  |  |  |  |  |  |  | > 100 µM |  | > 100 µM |  | > 100 µM
6 | CN1C(=O)C(Cl)(C(Cl)(Cl)S(=O)(=O)O)C(=O)c2ccccc21 (stereo not given) |  | > 100 |  | > 100 |  | > 100 µM |  | > 100 |  | 73 |  |  |  | > 100 |  | > 100 µM |  | > 100 µM |  | 76.1 µM
7 | O=C(OC[C@H]1O[C@@H](OC(=O)c2cc(O)c(O)c(O)c2)[C@H](OC(=O)c2cc(O)c(O)c(O)c2)[C@@H](OC(=O)c2cc(O)c(O)c(O)c2)[C@@H]1OC(=O)c1cc(O)c(O)c(O)c1)c1cc(O)c(O)c(O)c1 |  | 21.2 |  | > 100 |  | 66 µM |  | 7.71 |  | 73.7 |  | 52.5 µM |  | 4.41 |  | 19.8 µM |  | 17.7 µM |  | 
8 | Nc1ccc(S(=O)(=O)NCc2nccs2)cc1 |  | 77.3 |  | 44 |  | 56.5 µM |  | 58.9 |  | 31.3 |  | 35.7 µM |  | 41.7 |  | 94.3 µM |  | > 100 µM |  | 
9 | C[N+]1(C)C/C(=C\c2ccncc2)C(=O)/C(=C/c2ccncc2)C1 |  | > 100 |  | 79.5 |  | > 100 µM |  |  |  | > 100 |  | > 100 µM |  | > 100 |  | > 100 µM |  | > 100 µM |  | > 100 µM
10 | COc1cc(Br)c(C=Nc2cccc3ccc(OS(=O)(=O)c4cccc([N+](=O)[O-])c4)cc23)cc1OC |  | > 100 |  |  |  |  |  | 44.8 |  | > 100 |  | > 100 µM |  | > 100 |  | > 100 µM |  | > 100 µM |  | > 100 µM
11 | Nc1nc(CCC(=O)Nc2cccc(C(F)(F)F)c2)cc(-c2ccc3ccccc3c2)n1 |  | > 100 |  | > 100 |  | > 100 µM |  | > 100 |  | > 100 |  | > 100 µM |  |  |  | > 100 µM |  | > 100 µM |  | > 100 µM
12 | O=C([CH-]C(=O)C(F)(F)F)c1ccccc1.O=C([CH-]C(=O)C(F)(F)F)c1ccccc1.O=C([CH-]C(=O)C(F)(F)F)c1ccccc1.O=C([CH-]C(=O)C(F)(F)F)c1ccccc1.[Eu+3].c1ccncc1 | 11.9 | > 100 | 3.69 | 13.8 |  |  | 3.7 | 19.5 | 6.97 | > 100 | 41 | > 100 µM | 5.78 | 21 | 25.6 | > 100 µM |  |  |  | 
13 | CN[C@@H]1C[C@H]2O[C@@](C)([C@@H]1OC)n1c3ccccc3c3c4c(c5c6ccccc6n2c5c31)C(=O)N[C@@H]4O |  | 0.172 |  |  | 0.0195 µM and 0.0211 µM | 0.3 µM and 0.0914 µM |  | 1.53 | 0.0475 |  | 0.0226 | 0.298 µM and 0.24 µM |  | 0.406 | 0.0328 | 0.3 µM and 2.87 µM |  | 0.3 µM and 0.722 µM | 0.0154 | 0.0589 µM and 0.461 µM
14 | CCOC(=O)CC1NC(=O)CS1 (stereo not given) |  | > 100 |  | > 100 |  | > 100 µM |  | > 100 |  | > 100 |  | > 100 µM |  |  |  | > 100 µM |  | > 100 µM |  | > 100 µM
15 | CCC(c1cccc(O)c1)C(CC)c1cccc(O)c1 (stereo not given) | 5.68 | 18.3 |  |  | 2.93 µM | 20.4 µM | 4.08 | 16.6 | 1.86 | 11.2 | 12 | 24.3 µM | 4.07 | 16.9 | 8.58 | 24.2 µM | 6.2 | 19 µM | 2.1 | 20 µM
16 | O=C1C2Cc3ccccc3CN2C(=O)N1CCN1CCCC1 (stereo not given) |  | > 100 |  | > 100 |  | > 100 µM |  | > 100 |  |  |  | > 100 µM |  | > 100 |  | > 100 µM |  | > 100 µM |  | > 100 µM
17 | CCOC(=O)[C@H]1Nc2ccc(OC)cc2C2c3ccccc3CC21 (stereo not given in full) |  | > 100 |  |  |  | > 100 µM |  | > 100 |  | > 100 |  | > 100 µM |  | > 100 |  | > 100 µM |  | > 100 µM |  | > 100 µM
18 | CCN1CSC(=S)N(CC)C1 |  | > 100 |  | 47.4 |  | > 100 µM |  | > 100 |  | > 100 |  | > 100 µM |  |  |  | > 100 µM |  | > 100 µM |  | > 100 µM
19 | N.N.N.N.N.N.O=N[O-].[Br-].[Co+3].[Co+3].[OH3+].[OH3+] | > 100 | > 100 | > 100 | > 100 | > 100 µM | > 100 µM | > 100 | > 100 |  |  | > 100 | > 100 µM | > 100 | > 100 | > 100 | > 100 µM |  |  | > 100 | > 100 µM
